Data from ChEMBL document CHEMBL2169758, “Evaluation of new scaffolds of myeloperoxidase inhibitors by rational design combined with high-throughput virtual screening” (J Med Chem, 2012).
pIC50, pKd: −log10 of the molar value. Active and inactive are the calls of the source. No cut-off for these calls is given here.

Key:
[1] = molecular target: T1, Myeloperoxidase (Homo sapiens) (UniProt P05164); assay: Inhibition of human recombinant myeloperoxidase-mediated Apo B-100 oxidation on LDL at 50 uM after 5 min by ELISA
T1 sequence (whole entry): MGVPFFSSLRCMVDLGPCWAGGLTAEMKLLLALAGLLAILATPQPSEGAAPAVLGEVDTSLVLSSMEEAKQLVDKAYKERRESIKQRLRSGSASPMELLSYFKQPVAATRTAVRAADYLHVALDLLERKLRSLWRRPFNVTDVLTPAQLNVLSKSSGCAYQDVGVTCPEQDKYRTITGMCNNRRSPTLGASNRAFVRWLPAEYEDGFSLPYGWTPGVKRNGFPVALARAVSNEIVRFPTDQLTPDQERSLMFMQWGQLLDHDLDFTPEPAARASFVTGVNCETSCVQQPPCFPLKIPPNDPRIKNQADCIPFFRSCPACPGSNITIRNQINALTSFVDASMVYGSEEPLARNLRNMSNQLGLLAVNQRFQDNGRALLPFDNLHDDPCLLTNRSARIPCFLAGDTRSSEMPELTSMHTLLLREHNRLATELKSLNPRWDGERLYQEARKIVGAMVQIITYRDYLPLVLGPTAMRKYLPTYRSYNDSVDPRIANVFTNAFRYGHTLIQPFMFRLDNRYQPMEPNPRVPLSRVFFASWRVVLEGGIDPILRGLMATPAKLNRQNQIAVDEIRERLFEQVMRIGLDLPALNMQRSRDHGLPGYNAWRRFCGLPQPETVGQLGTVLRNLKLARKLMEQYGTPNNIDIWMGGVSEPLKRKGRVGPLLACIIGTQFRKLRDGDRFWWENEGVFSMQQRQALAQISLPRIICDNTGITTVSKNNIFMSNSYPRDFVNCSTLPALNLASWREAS

[2] = molecular target: T1, Myeloperoxidase (Homo sapiens); assay: Inhibition of human recombinant myeloperoxidase-mediated Apo B-100 oxidation on LDL at 5 uM after 5 min by ELISA
[3] = molecular target: T1, Myeloperoxidase (Homo sapiens); assay: Inhibition of human recombinant myeloperoxidase assessed as compound 1 formation by spectrophotometry in presence of H2O2
[4] = molecular target: T1, Myeloperoxidase (Homo sapiens); assay: Inhibition of human recombinant myeloperoxidase-mediated Apo B-100 oxidation on LDL at 1.25 uM after 5 min by ELISA
Myeloperoxidase [5] = molecular target: T2, Myeloperoxidase (Homo sapiens, UniProt P05164); assay: Inhibition of myeloperoxidase
T2 sequence (P05164 whole entry): T1 sequence (whole entry)

Myeloperoxidase [6] = molecular target: T2, Myeloperoxidase; assay: Inhibition of recombinant human myeloperoxidase assessed as taurine chloramine production after 5 mins by spectrophotometry in presence of H2O2; assay type: single protein
[7] = molecular target: T1, Myeloperoxidase (Homo sapiens); assay: Ratio of apparent rate constant of compound 1 formation to apparent rate constant of compound 2 formation for human recombinant myeloperoxidase
[8] = molecular target: T1, Myeloperoxidase (Homo sapiens); assay: Inhibition of human recombinant myeloperoxidase assessed as compound 2 formation by spectrophotometry in presence of H2O2
Myeloperoxidase [9] = molecular target: T2, Myeloperoxidase; assay: Inhibition of recombinant human myeloperoxidase
Myeloperoxidase [10] = molecular target: T2, Myeloperoxidase; assay: Binding affinity to recombinant human myeloperoxidase

SMILES | inhibition [1] | inhibition [2] | Rate constant for compound I formation [3] | inhibition [4] | pIC50 (Myeloperoxidase [6]) | further results
COc1ccc2cc(CN(Cc3ccc(F)cc3)C(=S)NCCCN(C)C)c(O)nc2c1 | inactive | inactive | 9.36 ×10⁵ /M/s | inactive | – | –
O=c1c(O)c(-c2ccc(O)c(O)c2)oc2cc(O)cc(O)c12 [QUERCETIN] | – | – | – | – | – | pIC50 (Myeloperoxidase [5]): 5.90
C(=N\Nc1nc2ccccc2[nH]1)/c1c[nH]c2ccccc12 | inactive | inactive | 4.1 ×10⁷ /M/s | inactive | 4.92 | –
Oc1ccccc1CN1CCCN(Cc2ccccc2O)C1 | 11% | 4.5% | 5.1 ×10⁶ /M/s | 62% | 6.30 | –
Cn1c(=O)[nH]c(=O)c2c1nc(NCCN)n2CCCOc1ccccc1 | 6% | 2.6% | 5.1 ×10⁶ /M/s | 11% | 6.34 | Ratio [7]: 24300; Activity [8]: 210 M⁻¹ s⁻¹
COc1ccccc1N1CCN(C(=O)CSc2ncccc2-c2nc3ccccc3[nH]2)CC1 | inactive | inactive | – | inactive | 5.21 | –
NCCc1c[nH]c2ccc(F)cc12 | – | – | – | – | – | pIC50 (Myeloperoxidase [9]): 6.10
CCC1=CCCc2cc(OC)ccc21 | – | – | – | – | – | pIC50 (Myeloperoxidase [5]): 5.52
O=C(NO)c1ccccc1O [SALICYLHYDROXAMIC ACID] | – | – | – | – | – | pKd (Myeloperoxidase [10]): 5.70; pIC50 (Myeloperoxidase [9]): 5.52
COc1ccc2cc(CN(Cc3ccc(F)cc3)C(=S)NCCCN(C)C)c(=O)[nH]c2c1 | – | – | – | – | 5.42 | –
COc1cc(OC)c(C2N=C(N)Nc3nc4ccccc4n32)cc1OC (stereo not given) | inactive | inactive | 1.4 ×10⁶ /M/s | inactive | 5.46 | Ratio [7]: 1.27e+06; Activity [8]: 1.1 M⁻¹ s⁻¹
CS(=O)(=O)Nc1ccc([N+](=O)[O-])cc1Oc1ccccc1 [NIMESULIDE] | – | – | – | – | – | pIC50 (Myeloperoxidase [9]): 5.68
COc1cc(-c2nc(-c3ccccc3)c(-c3ccccc3)[nH]2)ccc1OCC(=O)O | inactive | inactive | 1.9 ×10⁶ /M/s | inactive | 6.01 | –
NC1=Nc2nc3ccccc3n2C(c2ccc(OCC(=O)O)cc2)N1 (stereo not given) | inactive | inactive | 6.8 ×10⁵ /M/s | inactive | 5.43 | –
CC(C)CN1C(=O)C2=NC=NC2=NC1=S | – | – | – | – | – | pIC50 (Myeloperoxidase [5]): 6.06
